Measured values: patent publication US12403132B2, “Methods of treating bone marrow failure syndromes and compositions for use in the same” (The Board of Trustees of the Leland Stanford Junior …, priority 2020, dated 2025)

Molecular target: T1, NLK (Homo sapiens, UniProt Q9UBE8)
T1 sequence (Q9UBE8 1-527): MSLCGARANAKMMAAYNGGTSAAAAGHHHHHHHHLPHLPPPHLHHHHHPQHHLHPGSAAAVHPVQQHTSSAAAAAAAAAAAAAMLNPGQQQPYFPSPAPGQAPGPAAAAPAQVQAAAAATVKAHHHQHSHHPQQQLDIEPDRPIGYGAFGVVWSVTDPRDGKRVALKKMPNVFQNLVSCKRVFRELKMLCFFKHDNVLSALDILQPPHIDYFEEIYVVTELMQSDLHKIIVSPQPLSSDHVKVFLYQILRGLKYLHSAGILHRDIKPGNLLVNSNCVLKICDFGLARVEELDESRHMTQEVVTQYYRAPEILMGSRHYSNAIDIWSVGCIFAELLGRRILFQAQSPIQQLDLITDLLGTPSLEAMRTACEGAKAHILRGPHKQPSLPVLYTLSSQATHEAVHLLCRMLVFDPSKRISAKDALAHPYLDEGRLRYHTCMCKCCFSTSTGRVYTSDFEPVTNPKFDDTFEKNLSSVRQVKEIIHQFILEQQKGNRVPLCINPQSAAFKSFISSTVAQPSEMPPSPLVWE
Test: NLK in vitro kinase assay, compound added to active NLK immunopurified from Kp53A1 cells
Format: biochemical
Parameters: inhibition of NLK kinase activity in vitro: dose or concentration left out as unconfirmed
Conditions: for NLK activity with compound added to activated NLK in in vitro kinase assay: 0, 50 nM, 50 μM or 50 mM, 30 mins
Experimental: FIG. 6. […] (a) Schematic of assay utilized to screen compounds for effects on erythroid progenitor cell expansion. Lin-Kit+fetal liver cells were obtained from mouse embryos expressing tet-on shRNA against RPS19, at day E14.5-15.5. Cells were plated at 2000 cell per well in 96-well plates in the presence or absence of doxycycline. Relative amounts of live cells were quantified by luciferase-based Cell titer-Glo® assay. (b) TGFβR1 inhibitors including SB431542 were assessed for their ability to increase cell expansion in RPS19-insuffiency. As a control, untreated (no doxycycline) is represented at the far left while all other samples were treated with doxycycline to induce RPS19-insufficiency. (c) Kit+ erythroid progenitors were grown in the absence of doxycycline and in the presence of 10 μM of indicated compound. As a comparison, samples with no inhibitor added are represented in grey. In addition, cells were either left untreated, or treated with 5 ng/ml of TGFβ1 for 5 days before being subjected to Cell TiterGlo® assay. (d) Schematic indicating Smad2 and Smad3 serve as substrates for activated TGFβR1 while NLK, c-Myb and raptor serve as substrates for activated NLK (upper panel). K562 cells were stimulated with 5 ng/ml TGFβ1 for 10 min and TGFβR1 was immunopurified after cell lysis and protein normalization. TGFβR1 was added to purified Smad2 (middle panel) and Smad3 (lower panel) in the presence of ATP and Mg^2+ at 37° C. for 30 min. As per NLK kinase assay, phosphorylation of substrates was detected by antibody raised against phosphorylated serine residues. Compounds with inhibitory properties against TGFβR1, other TGFB pathway factors, or NLK expression were added to the kinase reactions at concentrations known to inhibit TGFB signaling.
FIG. 10. […] (Panel A) Control (shLuc—grey columns) or RPS19-insufficient (shRPS19-—black columns) progenitors were differentiated in erythroid media alone, vehicle or vehicle containing 50 mM metformin or 5 uM SD208 for 5 days. 5000 cells per treatment were lysed and immunopurified NLK was subjected to in vitro kinase assay to determine phosphorylation potential against 3 recognized NLK substrates; NLK itself (upper), c-Myb (middle) or raptor (bottom). (Panel B) Simultaneously, qRT-PCR was performed to examine NLK (upper) and RPS19 (lower) mRNA expression. (Panel C) Active NLK was purified from activated Kp53A1 cells and subjected to in vitro kinase assay in the presence of 0, 50 nM, 50 μM, or 50 mM metformin or SD208. The phosphorylation of NLK (upper), c-Myb (middle) and raptor (lower) was determined after 30 mins. (Panel D) CD34+ progenitors were transduced with a combination of either shRNA against luciferase (shLuc—grey columns) or RPS19 (shRPS19—black columns) and siRNA against a non-targeting sequence (NT) or NLK (siNLK). After 14 days differentiation in the presence or absence of metformin, cells were counted and the percentage of cells with surface expression of CD235 and CD11b were determined by flow cytometry, to yield the number of CD235+ erythroid (upper) and CD11b+ myeloid (lower) cells. The total number of cells is expressed as a percentage of the number of each cell type in the control (untreated/shLuc/NT). […] Statistics: two-tailed Student's t test, significant *P<0.05
For NLK kinase analysis, cultures were treated as indicated and lysed for 30 min at 4° C. in 750 μl of kinase lysis buffer (50 mM Tris [pH 7.4], 5 mM EDTA, 250 mM NaCl, 0.1% Triton X-100, 50 mM NaF, 0.1 trypsin inhibitor unit of aprotinin per ml, 50 μg of phenylmethylsulfonyl fluoride per ml, 100 μM sodium vanadate, 1 μg of leupeptin per ml).

[1] = panel assessed at 0.1, 1 and 10 μM, compared with TGFβR1 at 1 μM

SMILES: Cc1cccc(-c2nn3c(c2-c2ccnc4ccc(C(N)=O)cc24)CCC3)n1 [Galunisertib]
- inhibition at 1 µM [1]: 40 to 45%

SMILES: NC(=O)c1ccc(-c2nc(-c3ccc4c(c3)OCO4)c(-c3ccccn3)[nH]2)cc1 [SB431542]
- inhibition at 1 µM [1]: ~55%

SMILES: Fc1ccc(Cl)cc1-c1nc(Nc2ccncc2)c2nccnc2n1 [SD208]
- NLK activity with compound added to activated NLK in in vitro kinase assay: robustly inhibited
- inhibition of NLK phosphorylating NLK (5 μM): 84.3%
- inhibition of NLK phosphorylating Raptor (5 μM): 89.1%
- inhibition of NLK phosphorylating c-Myb (5 μM): 79.7%
- inhibition of NLK activity in vitro [1]: approximately 80%

SMILES: CC(C)=CCC[C@](C)(O[C@@H]1O[C@H](CO[C@@H]2O[C@H](CO)[C@@H](O)[C@H](O)[C@H]2O)[C@@H](O)[C@H](O)[C@H]1O)[C@H]1CC[C@]2(C)[C@@H]1[C@H](O)C[C@@H]1[C@@]3(C)CC[C@H](O[C@@H]4O[C@H](CO)[C@@H](O)[C@H](O)[C@H]4O[C@@H]4O[C@H](CO)[C@@H](O)[C@H](O)[C@H]4O)C(C)(C)[C@@H]3CC[C@]12C [ginsenoside Rb1]
- inhibition of NLK kinase activity in vitro (substrates Raptor, c-Myb, NLK): failed to inhibit

SMILES: CN(C)C(=N)N=C(N)N [metformin]
- NLK activity with compound added to activated NLK in in vitro kinase assay: did not influence
